We go through 4 molecules from patent US5856359A, “Thyroxine/cyclodextrin complexes and pharmaceutical compositions containing the same” (Hexal AG, priority 1995, dated 1999).

Counter-ions that a name gives are not always drawn.

Type in all cases: physicochemical
A short description of data set [1]: Aqueous solubility of L-thyroxine sodium salt in the presence of cyclodextrins. An excerpt:
Interaction between L-thyroxine sodium and cyclodextrins in presence of water.
One evidence of the interaction between L-thyroxine and cyclodextrins is that the cyclodextrins increase the aqueous solubility of the thyroxine as shown in Table 1.
Solubility of L-thyroxine sodium salt in the presence of CDs (mg/ml)

The nature of data set [2]: Physical stability of aqueous gels and solutions on storage. The method, then:
150 mg of a water swellable polymer (i.e. Klucel; Hercules Corp. USA) was added.
The aqueous gel containing γ-cyclodextrin solubilized thyroxine was prepared by mixing at room temperature 150 mg of Pionier NP37 (polyacrylicacid) with 10 ml of 10% aqueous γ-cyclodextrin solution containing 300 mg solubilized L-thyroxine-Na.
10 ml of the aqueous Pionier NP37-thyroxine/γ-cyclodextrin formulation was stored in sealed polyethylene bags as well as in capped glass vials under normal laboratory conditions (22° C. exposed to day light) for two weeks and the turbidity of the samples was investigated.

A short description of data set [3]: Aqueous solubility of L-thyroxine free acid in the presence of γ-cyclodextrin. The procedure:
This poor solubility can be affected positively by employing γ-cyclodextrin. The effect of γ-cyclodextrin as to the aqueous solubility of thyroxine acid is shown by the results in the table below:
Aqueous solubility of thyroxine free acid in the
presence of γ-cyclodextrin at 25° C. studied on two

`N[C@@H](Cc1cc(I)c(Oc2cc(I)c(O)c(I)c2)c(I)c1)C(=O)O` [L-thyroxine sodium salt, Levothyroxine sodium]: the solubility in data set [1] (water with 2-hydroxypropylated-β-cyclodextrin, 2-hydroxypropylated-β-cyclodextrin 1.0%) worked out at 1440 µg/mL; in data set [1] (water with 2-hydroxypropylated-β-cyclodextrin, 2-hydroxypropylated-β-cyclodextrin 5.0%), 2900 µg/mL; in data set [1] (water with 2-hydroxypropylated-β-cyclodextrin, 2-hydroxypropylated-β-cyclodextrin 7.0%) it was 2740 µg/mL; in data set [1] (water with 2-hydroxypropylated-β-cyclodextrin, 2-hydroxypropylated-β-cyclodextrin 10.0%), 2770 µg/mL; in data set [1] (water with 2-hydroxypropylated-β-cyclodextrin, 2-hydroxypropylated-β-cyclodextrin 12.0%) it was 3050 µg/mL; in data set [1] (water with 2-hydroxypropylated-β-cyclodextrin, 2-hydroxypropylated-β-cyclodextrin 15.0%), 3140 µg/mL. Besides, the solubility in data set [1] (water with 2-hydroxypropylated-β-cyclodextrin, 2-hydroxypropylated-β-cyclodextrin 3.0%) was 3100 µg/mL; in data set [1] (water with heptakis-2,6-di-o-methyl-β-cyclodextrin, heptakis-2,6-di-O-methyl-β-cyclodextrin 1.0%), 3160 µg/mL; in data set [1] (water with heptakis-2,6-di-o-methyl-β-cyclodextrin, heptakis-2,6-di-O-methyl-β-cyclodextrin 3.0%), 5500 µg/mL; in data set [1] (water with randomly-methylated-β-cyclodextrin, randomly-methylated-β-cyclodextrin 1.0%), 3700 µg/mL; in data set [1] (water with randomly-methylated-β-cyclodextrin, randomly-methylated-β-cyclodextrin 5.0%) it was 8360 µg/mL; in data set [1] (water with randomly-methylated-β-cyclodextrin, randomly-methylated-β-cyclodextrin 7.0%), 9330 µg/mL. Besides, the solubility was 10300 µg/mL in data set [1] (water with randomly-methylated-β-cyclodextrin, randomly-methylated-β-cyclodextrin 10.0%); 13300 µg/mL in data set [1] (water with randomly-methylated-β-cyclodextrin, randomly-methylated-β-cyclodextrin 12.0%); 16800 µg/mL in data set [1] (water with randomly-methylated-β-cyclodextrin, randomly-methylated-β-cyclodextrin 15.0%); 6150 µg/mL in data set [1] (water with randomly-methylated-β-cyclodextrin, randomly-methylated-β-cyclodextrin 3.0%); 5480 µg/mL in data set [1] (water with γ-cyclodextrin, γ-cyclodextrin 1.0%); 16900 µg/mL in data set [1] (water with γ-cyclodextrin, γ-cyclodextrin 5.0%). Further, the solubility in data set [1] (water with γ-cyclodextrin, γ-cyclodextrin 7.0%) came to 26600 µg/mL; in data set [1] (water with γ-cyclodextrin, γ-cyclodextrin 12.0%) it was 35100 µg/mL; in data set [1] (water with γ-cyclodextrin, γ-cyclodextrin 15.0%), 44200 µg/mL; in data set [1] (water with γ-cyclodextrin, γ-cyclodextrin 3.0%) it was 12100 µg/mL; in data set [1] (water, 1.0% maltosyl-β-cyclodextrin, Maltosyl-β-cyclodextrin 1.0%), 2290 µg/mL; in data set [1] (water, 2-hydroxypropylated-β-cyclodextrin column, 0% (no CDs)), 2000 µg/mL. For the same molecule, the solubility came out at 2480 µg/mL in data set [1] (water, 3.0% maltosyl-β-cyclodextrin, Maltosyl-β-cyclodextrin 3.0%); 7000 µg/mL in data set [1] (water, 5.0% dimethyl-β-cyclodextrin, heptakis-2,6-di-O-methyl-β-cyclodextrin 5.0%); 2320 µg/mL in data set [1] (water, 5.0% maltosyl-β-cyclodextrin, Maltosyl-β-cyclodextrin 5.0%); 7620 µg/mL in data set [1] (water, 7.0% dimethyl-β-cyclodextrin, heptakis-2,6-di-O-methyl-β-cyclodextrin 7.0%); 2940 µg/mL in data set [1] (water, 7.0% maltosyl-β-cyclodextrin, Maltosyl-β-cyclodextrin 7.0%); 2730 µg/mL in data set [1] (water, 10.0% maltosyl-β-cyclodextrin, Maltosyl-β-cyclodextrin 10.0%). The solubility in data set [1] (water, 12.0% dimethyl-β-cyclodextrin, heptakis-2,6-di-O-methyl-β-cyclodextrin 12.0%) was found to be 12100 µg/mL; in data set [1] (water, 12.0% maltosyl-β-cyclodextrin, Maltosyl-β-cyclodextrin 12.0%) it was 2800 µg/mL; in data set [1] (water, 15.0% dimethyl-β-cyclodextrin, heptakis-2,6-di-O-methyl-β-cyclodextrin 15.0%), 14200 µg/mL; in data set [1] (water, 15.0% maltosyl-β-cyclodextrin, Maltosyl-β-cyclodextrin 15.0%), 2680 µg/mL; in data set [1] (water, Maltosyl-β-cyclodextrin column, 0% (no CDs)) it was 2000 µg/mL; in data set [1] (water, heptakis-2,6-di-O-methyl-β-cyclodextrin column, 0% (no CDs)), 2000 µg/mL. Further, the solubility is 2000 µg/mL in data set [1] (water, randomly-methylated-β-cyclodextrin column, 0% (no CDs)) and 2000 µg/mL in data set [1] (water, γ-cyclodextrin column, 0% (no CDs)). Also, the “improvement of aqueous solubility of L-thyroxine sodium” value in data set [1] (γ-cyclodextrin, among unsubstituted cyclodextrins) is “improve the aqueous solubility of L-thyroxine sodium most remarkably”.

Regarding `OC[C@H]1O[C@@H]2O[C@H]3[C@H](O)[C@@H](O)[C@@H](O[C@H]4[C@H](O)[C@@H](O)[C@@H](O[C@H]5[C@H](O)[C@@H](O)[C@@H](O[C@H]6[C@H](O)[C@@H](O)[C@@H](O[C@H]7[C@H](O)[C@@H](O)[C@@H](O[C@H]8[C@H](O)[C@@H](O)[C@@H](O[C@H]9[C@H](O)[C@@H](O)[C@@H](O[C@H]1[C@H](O)[C@H]2O)O[C@@H]9CO)O[C@@H]8CO)O[C@@H]7CO)O[C@@H]6CO)O[C@@H]5CO)O[C@@H]4CO)O[C@@H]3CO` [γ-cyclodextrin], in data set [2] (aqueous γ-cyclodextrin solution without L-thyroxine-Na, after one week of storage), the precipitate formation result is listed as “small amount of white precipitate formation”. The “haze / precipitate formation on storage” value in data set [2] (clear aqueous γ-cyclodextrin solutions without L-thyroxine-Na, or L-thyroxine-Na/γ-cyclodextrin hydrogels) was “hazy within three days”.

For the molecule `N[C@@H](Cc1cc(I)c(Oc2cc(I)c(O)c(I)c2)c(I)c1)C(=O)O` [L-thyroxine free acid, 0-(4-hydroxy-3,5-diiodophenyl)-3,5-diiodotyrosine], the “enhancement of aqueous solubility of the acid form of thyroxine” value in data set [3] (cyclodextrin 20% by weight) is “enhanced by about ten-fold”. Moreover, the solubility was determined as 400 µg/mL in data set [3] (water with γ-cyclodextrin, γ-cyclodextrin 5 g/100 ml, 25° C., 1-st run, read-out: solubility of thyroxine free acid); 379 µg/mL in data set [3] (water with γ-cyclodextrin, γ-cyclodextrin 5 g/100 ml, 25° C., 2-nd run, read-out: solubility of thyroxine free acid); 646 µg/mL in data set [3] (water with γ-cyclodextrin, γ-cyclodextrin 10 g/100 ml, 25° C., 1-st run, read-out: solubility of thyroxine free acid); 652 µg/mL in data set [3] (water with γ-cyclodextrin, γ-cyclodextrin 10 g/100 ml, 25° C., 2-nd run, read-out: solubility of thyroxine free acid); 765 µg/mL in data set [3] (water with γ-cyclodextrin, γ-cyclodextrin 12 g/100 ml, 25° C., 1-st run, read-out: solubility of thyroxine free acid); 800 µg/mL in data set [3] (water with γ-cyclodextrin, γ-cyclodextrin 12 g/100 ml, 25° C., 2-nd run, read-out: solubility of thyroxine free acid). For the same molecule, the solubility is 1020 µg/mL in data set [3] (water with γ-cyclodextrin, γ-cyclodextrin 15 g/100 ml, 25° C., 1-st run, read-out: solubility of thyroxine free acid); 1000 µg/mL in data set [3] (water with γ-cyclodextrin, γ-cyclodextrin 15 g/100 ml, 25° C., 2-nd run, read-out: solubility of thyroxine free acid); 1390 µg/mL in data set [3] (water with γ-cyclodextrin, γ-cyclodextrin 20 g/100 ml, 25° C., 1-st run, read-out: solubility of thyroxine free acid); 1440 µg/mL in data set [3] (water with γ-cyclodextrin, γ-cyclodextrin 20 g/100 ml, 25° C., 2-nd run, read-out: solubility of thyroxine free acid); 110 to 150 µg/mL in data set [3] (water, without cyclodextrin, read-out: aqueous solubility of the free acid form of L-thyroxine); 110 µg/mL in data set [3] (water, γ-cyclodextrin 0 g/100 ml, 25° C., 1-st run, read-out: solubility of thyroxine free acid). Moreover, the solubility in data set [3] (water, γ-cyclodextrin 0 g/100 ml, 25° C., 2-nd run, read-out: solubility of thyroxine free acid) is 150 µg/mL.

Consider thyroxine, for which, in data set [1], the “effect on the solubility of thyroxine” value is recorded as “practically no effect”; the “improvement of aqueous solubility of thyroxine” value is “did not significantly improve the aqueous solubility of thyroxine”; the “solubilizing potency of methylated-β-cyclodextrins for thyroxine versus γ-cyclodextrin” value was “less potent solubilizers of thyroxine, than the chemically non-modified γ-cyclodextrin”.
